Results on 16 compounds are retold here after patent US20100056526A1, “HETEROMONOCYCLIC COMPOUND AND USE THEREOF” (Takeda Pharmaceutical Company Limited, priority 2006, published 2010).

One assay concerns the target T1, PPARγ (Homo sapiens, UniProt P37231).
T1 construct: expressed in transfected cells; host or cells: CHO-K1
T1 sequence (P37231 1-477 isoform P37231-2): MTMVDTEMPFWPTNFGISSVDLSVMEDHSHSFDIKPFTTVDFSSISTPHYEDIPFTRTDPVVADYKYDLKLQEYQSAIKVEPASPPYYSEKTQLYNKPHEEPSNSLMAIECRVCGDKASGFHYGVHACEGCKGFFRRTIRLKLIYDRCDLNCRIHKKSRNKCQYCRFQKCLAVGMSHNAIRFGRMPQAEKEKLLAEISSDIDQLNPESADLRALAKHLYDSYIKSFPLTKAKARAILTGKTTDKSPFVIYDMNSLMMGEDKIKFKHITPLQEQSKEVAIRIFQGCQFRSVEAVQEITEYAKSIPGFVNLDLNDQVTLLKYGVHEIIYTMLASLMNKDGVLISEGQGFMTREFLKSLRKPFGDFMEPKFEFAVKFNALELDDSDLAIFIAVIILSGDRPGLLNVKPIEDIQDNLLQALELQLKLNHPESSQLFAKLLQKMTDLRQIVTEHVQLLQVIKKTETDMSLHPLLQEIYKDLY
T1 sequence (P19793 1-462 partner): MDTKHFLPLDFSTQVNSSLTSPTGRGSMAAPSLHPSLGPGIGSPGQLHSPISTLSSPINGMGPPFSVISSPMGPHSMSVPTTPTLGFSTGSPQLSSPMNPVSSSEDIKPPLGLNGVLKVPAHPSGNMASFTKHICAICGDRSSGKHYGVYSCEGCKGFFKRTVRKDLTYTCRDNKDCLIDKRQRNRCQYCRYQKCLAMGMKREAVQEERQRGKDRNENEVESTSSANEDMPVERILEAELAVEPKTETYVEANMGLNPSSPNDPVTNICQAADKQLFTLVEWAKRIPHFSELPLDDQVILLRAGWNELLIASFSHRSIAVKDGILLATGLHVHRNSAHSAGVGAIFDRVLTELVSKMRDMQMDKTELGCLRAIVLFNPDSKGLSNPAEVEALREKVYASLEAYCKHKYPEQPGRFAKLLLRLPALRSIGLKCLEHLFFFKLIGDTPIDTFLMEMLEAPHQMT
Description: Evaluation of PPARγ activating action (luciferase reporter in PPARγ:RXRα:4ERPP/CHO-K1 cells). It is filed as cell-based. The conditions noted are these: CHO-K1, 24 h; test compound 10^−6 M; luciferase activity relative to control compound X (1 μM) = 100%, non-administration group = 0%; read-out: PPARγ activating action (activation % (10^−6 M)). The gist of the method: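 Activity is expressed as percent, where vehicle gives 0% and 1 μM compound X gives 100%, based on luciferase luminescence. Reporter CHO-K1 cells co-expressing PPARγ:RXRα with a 4ERPP-driven luciferase were incubated with test compound for one day at 37 °C in medium with 0.1% fatty acid-free BSA.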

The target of another assay is T2, human AT1 receptor (Homo sapiens, UniProt P30556).
T2 construct: expressed in transfected cells; host or cells: CHO-K1
T2 sequence (P30556 1-359): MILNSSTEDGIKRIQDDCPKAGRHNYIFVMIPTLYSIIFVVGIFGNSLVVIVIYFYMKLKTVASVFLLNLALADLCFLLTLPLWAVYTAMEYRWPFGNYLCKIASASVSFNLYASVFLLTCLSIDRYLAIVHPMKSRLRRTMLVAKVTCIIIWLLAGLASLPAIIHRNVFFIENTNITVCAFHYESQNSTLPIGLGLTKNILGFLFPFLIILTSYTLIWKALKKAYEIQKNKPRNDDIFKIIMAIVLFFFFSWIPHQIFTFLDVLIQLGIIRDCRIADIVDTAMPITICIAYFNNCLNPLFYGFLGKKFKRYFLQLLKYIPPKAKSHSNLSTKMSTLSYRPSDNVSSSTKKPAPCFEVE
Description: Binding assay using human AT1 receptor-expressing CHO-K1 cell membrane fraction ([125I]-angiotensin II). As to conditions: 22.5 pM [125I]-angiotensin II, 9 μg AT1 membrane, 1 hr room temperature; read-out: AT1 receptor binding inhibitory action (IC50 (nM)). The procedure, abridged: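 Radioligand displacement: test compound competed with [125I]-angiotensin II (22.5 pM) on stable CHO-K1 AT1 membrane fraction, 1 hr, room temperature, Tris pH 7.4/MgCl2 buffer ± 0.3 mg/mL BSA. Filtration then scintillation counting; 1 μM CV-11974 defined nonspecific binding. Values are IC50s.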

In general, IC50 refers to the concentration needed to halve the response being measured. As to `CCCc1nc(CC)n(-c2ccc(OC3(COC)CCCC3)cc2)c(=O)c1Cc1ccc(-c2ccccc2-c2noc(=O)[nH]2)cc1` [Example 389, 2-ethyl-3-(4-{[1-(methoxymethyl)cyclopentyl]oxy}phenyl)-5-{[2′-(5-oxo-4,5-dihydro-1,2,4-oxadiazol-3-yl)biphenyl-4-yl]methyl}-6-propylpyrimidin-4(3H)-one], the activation at 1 µM on PPARγ was determined as 18.1%. The half-maximal inhibitory concentration (IC50) on human AT1 receptor came out at 1.8 nM.
The corresponding values for `CCCc1nc(CC)n(-c2ccc(OC3(CO)CCCC3)cc2)c(=O)c1Cc1ccc(-c2ccccc2-c2noc(=O)[nH]2)cc1` [Example 390, 2-ethyl-3-(4-{[1-(hydroxymethyl)cyclopentyl]oxy}phenyl)-5-{[2′-(5-oxo-4,5-dihydro-1,2,4-oxadiazol-3-yl)biphenyl-4-yl]methyl}-6-propylpyrimidin-4(3H)-one] are 19.9% and 1.2 nM.
The matching figures for `CCCc1nc(CC)n(-c2ccc(OC(COCC)COCC)cc2)c(=O)c1Cc1ccc(-c2ccccc2-c2noc(=O)[nH]2)cc1` [Example 395, 3-{4-[2-ethoxy-1-(ethoxymethyl)ethoxy]phenyl}-2-ethyl-5-{[2′-(5-oxo-4,5-dihydro-1,2,4-oxadiazol-3-yl)biphenyl-4-yl]methyl}-6-propylpyrimidin-4(3H)-one]: 16% and 1.7 nM.
The corresponding values for `CCCc1nc(C)n(-c2ccc(OC(C)C)cc2)c(=O)c1Cc1ccc(-c2ccccc2-c2noc(=O)[nH]2)cc1Cl` [Example 396, 5-{[3-chloro-2′-(5-oxo-4,5-dihydro-1,2,4-oxadiazol-3-yl)biphenyl-4-yl]methyl}-3-(4-isopropoxyphenyl)-2-methyl-6-propylpyrimidin-4(3H)-one] are 50.6% and 2.2 nM.
On to `CCCc1nc(C)n(-c2ccc3c(c2)CC(C)(C)O3)c(=O)c1Cc1ccc(-c2ccccc2-c2noc(=O)[nH]2)cc1Cl` [Example 397, 5-{[3-chloro-2′-(5-oxo-4,5-dihydro-1,2,4-oxadiazol-3-yl)biphenyl-4-yl]methyl}-3-(2,2-dimethyl-2,.3-dihydro-1-benzofuran-5-yl)-2-methyl-6-propylpyrimidin-4(3H)-one], for which, on PPARγ, the activation at 1 µM came to 48.6%. The IC50 on human AT1 receptor turned out to be 2.1 nM.
The corresponding values for `CCCc1nc(C)n(-c2ccc(OC(C)C)cc2)c(=O)c1Cc1ccc(-c2ccccc2-c2noc(=O)[nH]2)c(OC)c1` [Example 400, 3-(4-isopropoxyphenyl)-5-{[2-methoxy-2′-(5-oxo-4,5-dihydro-1,2,4-oxadiazol-3-yl)biphenyl-4-yl]methyl}-2-methyl-6-propylpyrimidin-4(3H)-one] are 21.3% and 2.8 nM.
Take `CCCc1nc(C)n(-c2ccc(OC(C)C)cc2)c(=O)c1Cc1ccc(-c2ccccc2-c2noc(=O)[nH]2)c(F)c1` [Example 401, 5-{[2-fluoro-2′-(5-oxo-4,5-dihydro-1,2,4-oxadiazol-3-yl)biphenyl-4-yl]methyl}-3-(4-isopropoxyphenyl)-2-methyl-6-propylpyrimidin-4(3H)-one]: the activation at 1 µM on PPARγ was 25.3%. The IC50 on human AT1 receptor stood at 1.5 nM.
The matching figures for `CCCc1nc(C)n(-c2ccc3c(c2)CC(C)(C)O3)c(=O)c1Cc1ccc(-c2ccccc2-c2noc(O)n2)c(F)c1` [Example 402, 3-(2,2-dimethyl-2,3-dihydro-1-benzofuran-5-yl)-5-{[2-fluoro-2′-(5-oxo-4,5-dihydro-1,2,4-oxadiazol-3-yl)biphenyl-4-yl]methyl}-2-methyl-6-propylpyrimidin-4(3H)-one]: 24.1% and 1.8 nM.
The corresponding values for `CCCc1nc(CC)n(-c2ccc(OC3CCOCC3)nc2)c(=O)c1Cc1ccc(-c2ccccc2-c2noc(=O)[nH]2)cc1` [Example 406, 2-ethyl-5-{[2′-(5-oxo-4,5-dihydro-1,2,4-oxadiazol-3-yl)biphenyl-4-yl]methyl}-6-propyl-3-[6-(tetrahydro-2H-pyran-4-yloxy)pyridin-3-yl]pyrimidin-4(3H)-one] are 41.9% and 1.5 nM.
The corresponding values for `C=COc1ccc(-n2c(C)nc(CCC)c(Cc3ccc(-c4ccccc4-c4noc(=O)[nH]4)cc3F)c2=O)cc1` [Example 408, 5-{[3-fluoro-2′-(5-oxo-4,5-dihydro-1,2,4-oxadiazol-3-yl)biphenyl-4-yl]methyl}-2-methyl-6-propyl-3-[4-(vinyloxy)phenyl]pyrimidin-4(3H)-one] are 48.7% and 1.4 nM.
For `CCCc1nc(CC)n(-c2ccc(OC3CCOC(C)(C)C3)cc2)c(=O)c1Cc1ccc(-c2ccccc2-c2noc(=O)[nH]2)cc1` (centres unmarked) [Example 413, 3-{4-[(2,2-dimethyltetrahydro-2H-pyran-4-yl)oxy]phenyl}-2-ethyl-5-{[2′-(5-oxo-4,5-dihydro-1,2,4-oxadiazol-3-yl)biphenyl-4-yl]methyl}-6-propylpyrimidin-4(3H)-one], the activation at 1 µM at PPARγ was determined as 18.9%. For the same compound, on human AT1 receptor, the IC50 is 1.7 nM.
The matching figures for `CCCc1nc(CC)n(-c2ccc(O[C@H]3CC[C@H](O)CC3)cc2)c(=O)c1Cc1ccc(-c2ccccc2-c2noc(=O)[nH]2)cc1` [Example 414, 2-ethyl-3-{4-[(trans-4-hydroxycyclohexyl)oxy]phenyl}-5-{[2′-(5-oxo-4,5-dihydro-1,2,4-oxadiazol-3-yl)biphenyl-4-yl]methyl}-6-propylpyrimidin-4(3H)-one]: 45% and 1.1 nM.
Consider `CCCc1nc(CC)n(-c2ccc(O[C@H]3CC[C@@H](O)CC3)cc2)c(=O)c1Cc1ccc(-c2ccccc2-c2noc(=O)[nH]2)cc1` [Example 415, 2-ethyl-3-{4-[(cis-4-hydroxycyclohexyl)oxy]phenyl}-5-{[2′-(5-oxo-4,5-dihydro-1,2,4-oxadiazol-3-yl)biphenyl-4-yl]methyl}-6-propylpyrimidin-4(3H)-one], for which the activation at 1 µM at PPARγ was 49.7%. At human AT1 receptor, the IC50 was 1 nM.
The matching figures for `CCCc1nc(CC)n(-c2ccc(OC3CCC(=O)CC3)cc2)c(=O)c1Cc1ccc(-c2ccccc2-c2noc(=O)[nH]2)cc1` [Example 416, 2-ethyl-3-{4-[(4-oxocyclohexyl)oxy]phenyl}-5-{[2′-(5-oxo-4,5-dihydro-1,2,4-oxadiazol-3-yl)biphenyl-4-yl]methyl}-6-propylpyrimidin-4(3H)-one]: 53.5% and 1.2 nM.
The corresponding values for `CCCc1nc(CC)n(-c2ccc(O[C@@H]3C[C@@H](C)O[C@@H](C)C3)cc2)c(=O)c1Cc1ccc(-c2ccccc2-c2noc(=O)[nH]2)cc1` [Example 417, 3-(4-{[(2R,4s,6S)-2,6-dimethyltetrahydro-2H-pyran-4-yl]oxy}phenyl)-2-ethyl-5-{[2′-(5-oxo-4,5-dihydro-1,2,4-oxadiazol-3-yl)biphenyl-4-yl]methyl}-6-propylpyrimidin-4(3H)-one] are 33.7% and 1.6 nM.
The matching figures for `CCCc1nc(CC)n(-c2ccc(OC3(CO)CCC3)cc2)c(=O)c1Cc1ccc(-c2ccccc2-c2noc(=O)[nH]2)cc1` [Example 419, 2-ethyl-3-(4-{[1-(hydroxymethyl)cyclobutyl]oxy}phenyl)-5-{[2′-(5-oxo-4,5-dihydro-1,2,4-oxadiazol-3-yl)biphenyl-4-yl]methyl}-6-propylpyrimidin-4(3H)-one]: 27.2% and 1.3 nM.
